# Experimental data: patent US20110233526A1, “PERYLENE DIIMIDE DERIVATIVE AND ORGANIC SEMICONDUCTOR ELEMENT USING THE SAME MATERIAL” (priority 2010, published 2011)
# Key:
# [1] = Electron mobility of TC-PDA-F in an OTFT versus time of exposure to air (air-stability, FIG. 3); format: physicochemical; conditions: OTFT thin film
# From the text: Refer to FIG. 1 and FIG. 2 for diagrams respectively schematically showing a BG-TC (Bottom Gate-Top Contact) OTFT and a BG-BC (Bottom Gate-Bottom Contact) OTFT. The BG-TC OTFT 10 has a substrate 11, a gate 12 formed on the substrate 11, a dielectric layer 13 formed on the gate 12, a source 14 and a drain 15 formed over the dielectric layer 13, and an organic semiconductor layer 16 for conducting the source 14 and the drain 15. The BG-BC OTFT 20 has a substrate 21, a gate 22 formed on the substrate 21, a dielectric layer 23 formed on the gate 22, a source 24 and a drain 25 formed on the dielectric layer 23, and an organic semiconductor layer 26 for conducting the source 24 and the drain 25. In one embodiment, the organic semiconductor layers 16 and 26 are fabricated with a soluble process in the atmospheric environment. In one embodiment, the dielectric layers 13 and 23 respectively formed on the substrates 11 and 21 also are fabricated with a soluble process. For example, a liquid-phase deposited silicon dioxide (LPD-SiO2) is formed on a silicon substrate 11 or 21 to function as the dielectric layer 13 or 23, whereby the electron mobility thereof can reach 0.26 cm^2V^−1s^−1. Refer to FIG. 3 for a diagram showing the relationship of the electron mobility of TC-PDA-F and the time of exposure to air.
# [2] = Solubility in organic solution; format: physicochemical; conditions: organic solution (such as toluene)
structure (smiles),measurement,setting,value
O=C1c2cc(Cl)c3c4c(Cl)cc5c6c(cc(Cl)c(c7c(Cl)cc(c2c37)C(=O)N1Cc1cc(F)cc(C(F)(F)F)c1)c64)C(=O)N(Cc1cc(F)cc(C(F)(F)F)c1)C5=O [TC-PDA-F],electron mobility,[1]; after exposure to air for two months (FIG. 3),1.6×10^−5 cm^2V^−1s^−1
same,electron mobility,[1]; before exposure to air (FIG. 3),5.34×10^−5 cm^2V^−1s^−1
same,solubility in organic solution,[2],can be dissolved
